From patent publication US12129221B2, “Difluoro phenyl amide RIP1 inhibitor” (SIRONAX LTD, priority 2018, dated 2024)
Read-outs that look alike come from different tables or passages of the source.

Key:
necrosis = experiment: Necrosis inhibitory activity (cell necrosis / cell viability assay); type: cell-based; settings: for EC50: read-out: EC50
Text: Necrosis Inhibitory Activity
Representative IC50 of hRIP1 Kinase Assay Correlated with Our IC50 of Cell Necrosis Assay: […]

ferroptosis = experiment: Ferroptosis inhibitor activity; type: cell-based; settings: 1 uM threshold activity extrapolated
Text: Ferroptosis Inhibitor Activity 1 Um Threshold Activity Extrapolated

[1] = Prodrug enhanced metabolic stability: liver microsome (L); type: in vitro ADME; set-up: key: +, Extrapolated
Text: (§1) Prodrug Enhanced Metabolic Stability: Liver Microsome (L), Hepatocyte (H) and PK

[2] = Prodrug enhanced metabolic stability: hepatocyte (H); type: in vitro ADME; set-up: key: +, Extrapolated
Text: as §1

[3] = Prodrug enhanced metabolic stability: PK; type: in vivo; set-up: key: +, Extrapolated
Text: as §1

[4] = Necrosis Inhibitory Activity, given as range

| EC50 (ferroptosis) [µM] | L [1] | H [2] | PK [3] | SMILES | EC50 (necrosis; [4]) [µM] | EC50 (necrosis; Active Pro-drugs) [µM] | EC50(nM) (necrosis; Active Pro-drugs) |
| --- | --- | --- | --- | --- | --- | --- | --- |
| 1 to 10 |  |  |  | [2H]c1c([2H])c([2H])c(C([2H])([2H])N(O)C(=O)C(C)(C)CC)c([2H])c1[2H] [Compound 30, N-hydroxy-2,2-dimethyl-N-((phenyl-d5)methyl-d2)butanamide] | 0.001 to 1 |  |  |
| 1 to 10 |  |  |  | [2H]CC([2H])C(C)(C)C(=O)N(O)C([2H])([2H])c1c([2H])c([2H])c([2H])c([2H])c1[2H] (stereo not drawn) [Compound 31, N-hydroxy-2,2-dimethyl-N-((phenyl-d5)methyl-d2)butanamide-3,4-d2] | 0.001 to 1 |  |  |
| 1 to 10 |  |  |  | CC1(C(C)(C)C(=O)N(O)Cc2ccccc2)CC1 [Compound 32, N-benzyl-N-hydroxy-2-methyl-2-(1-methylcyclopropyl) propanamide] | 0.001 to 1 |  |  |
| 1 to 10 |  |  |  | O=C(C1CCCC1)N(O)Cc1ccccc1 [Compound 33, N-benzyl-N-hydroxycydopentanecarboxamide] | 1 to 10 |  |  |
| 1 to 10 |  |  |  | O=C(N(O)Cc1ccccc1)C1(C(F)(F)F)CCCC1 [Compound 34, N-benzyl-N-hydroxy-1-(trifluoromethyl)cyclopentane-1-carboxamide] | 0.001 to 1 |  |  |
| 1 to 10 |  |  |  | CC1(C(=O)N(O)Cc2ccccc2)CCCCC1 [Compound 36, N-benzyl-N-hydroxy-1-methylcyclohexane-1-carboxamide] | 0.001 to 1 |  |  |
| 1 to 10 |  |  |  | O=C(C1CCCCC1)N(O)Cc1ccccc1 [Compound 37, N-benzyl-N-hydroxycyclohexanecarboxamide] | 1 to 10 |  |  |
| 1 to 10 |  |  |  | CCC1(C(=O)N(O)Cc2ccc(F)cc2)CC1 [Compound 39, 1-ethyl-N-(4-fluorobenzyl)-N-hydroxycyclopropane-1-carboxamide] | 1 to 100 |  |  |
| 1 to 10 |  |  |  | CCC1(C(=O)N(O)Cc2ccc(Cl)cc2)CC1 [Compound 40, N-(4-chlorobenzyl)-1-ethyl-N-hydroxycyclopropane-1-carboxamide] | 1 to 10 |  |  |
| 1 to 10 |  |  |  | CCC1(C(=O)N(O)Cc2cc(F)cc(F)c2)CC1 [Compound 41, N-(3,5-difluorobenzyl)-1-ethyl-N-hydroxycyclopropane-1-carboxamide] | 1 to 10 |  |  |
| 1 to 10 |  |  |  | CC(C)(C(=O)N(O)Cc1ccc(Br)cc1)C(F)(F)F [Compound 42, N-(4-bromobenzyl)-3,3,3-trifluoro-N-hydroxy-2,2-dimethylpropanamide] | 0.001 to 1 |  |  |
| 1 to 10 |  |  |  | CC(C)(C(=O)N(O)Cc1ccc(F)cc1)C(F)(F)F [Compound 43, 3,3,3-trifluoro-N-(4-fluorobenzyl)-N-hydroxy-2,2-dimethylpropanamide] | 0.001 to 1 |  |  |
| 1 to 10 |  |  |  | CC(C)(C(=O)N(O)Cc1ccc(Cl)cc1)C(F)(F)F [Compound 44, N-(4-chlorobenzyl)-3,3,3-trifluoro-N-hydroxy-2,2-dimethylpropanamide] | 0.001 to 1 |  |  |
| 1 to 10 |  |  |  | CC(C)(C(=O)N(O)Cc1cc(F)cc(F)c1)C(F)(F)F [Compound 45, N-(3,5-difluorobenzyl)-3,3,3-trifluoro-N-hydroxy-2,2-dimethylpropanamide] | 0.001 to 1 |  |  |
| 1 to 10 |  |  |  | CC(C)(C(=O)N(O)Cc1cc(F)c(F)c(F)c1)C(F)(F)F [Compound 46, 3,3,3-trifluoro-N-hydroxy-2,2-dimethyl-N-(3,4,5-trifluorobenzyl)propenamide] | 1 to 10 |  |  |
| 1 to 10 |  |  |  | Cc1cc(CN(O)C(=O)C(C)(C)C(F)(F)F)sc1C [Compound 47, N-((4,5-dimethylthiophen-2-yl)methyl)-3,3,3-trifluoro-N-hydroxy-2,2-dimethylpropanamide] | 0.001 to 1 |  |  |
| 1 to 10 |  |  |  | CC(C)(C(=O)N(O)Cc1cccs1)C(F)(F)F [Compound 49, 3,3,3-trifluoro-N-hydroxy-2,2-dimethyl-N-(thiophen-2-ylmethyl)propanamide] | 0.001 to 1 |  |  |
|  | + | + | + | CCOC(=O)ON(Cc1ccccc1)C(=O)C(C)(C)CC [Compound 50, N-benzyl-N-((ethoxycarbonyl)oxy)-2,2-dimethylbutanamide] |  | 0.0696 |  |

| EC50 (ferroptosis) [µM] | L [1] | H [2] | PK [3] | SMILES | EC50 (necrosis; [4]) [µM] | EC50 (necrosis; Active Pro-drugs) [µM] | EC50(nM) (necrosis; Active Pro-drugs) |
| --- | --- | --- | --- | --- | --- | --- | --- |
|  | + | + | + | CCC(C)(C)C(=O)N(Cc1ccccc1)OC(=O)c1ccccc1 [Compound 51, N-(benzoyloxy)-N-benzyl-2,2-dimethylbutanamide] |  | 0.284 |  |
|  | + | + | + | CCC(C)(C)C(=O)N(Cc1ccccc1)OC(=O)CC(=O)ON(Cc1ccccc1)C(=O)C(C)(C)CC [Compound 52, N,N′-(malonylbis(oxy))bis(N-benzyl-2,2-dimethylbutanamide)] |  | 0.0422 |  |
|  | + | + | + | CCC(C)(C)C(=O)N(Cc1ccccc1)OC(=O)CCC(=O)ON(Cc1ccccc1)C(=O)C(C)(C)CC [Compound 53, N,N′-(succinylbis(oxy))bis(N-benzyl-2,2-dimethylbutanamide)] |  | 0.0855 |  |
|  | + | + | + | CCC(C)(C)C(=O)N(Cc1ccccc1)OC(=O)c1cccc(C(=O)ON(Cc2ccccc2)C(=O)C(C)(C)CC)c1 [Compound 54, N,N′-(isophthaloylbis(oxy))bis(N-benzyl-2,2-dimethylbutanamide)] |  | 0.466 |  |
|  | + | + | + | CCC(C)(C)C(=O)N(Cc1ccccc1)OC(=O)OCCOCCOCCOC(=O)ON(Cc1ccccc1)C(=O)C(C)(C)CC [Compound 55, N,N′-(2,5,8,11-tetraoxadodecanedioylbis(oxy))bis(N-benzyl-2,2-dimethylbutanamide)] |  | 0.0993 |  |
|  | + | + | + | CCC(C)(C)C(=O)N(Cc1ccccc1)OC(=O)N1CCCCC1 [Compound 56, N-benzyl-2,2-dimethyl-N-((piperidine-1-carbonyl)oxy)butanamide] |  |  | weak |
|  | + | + | + | CCC(C)(C)C(=O)N(Cc1ccccc1)OC(=O)N1CCC(N2CCCCC2)CC1 [Compound 57, N-(([1,4′-bipiperidine]-1′-carbonyl)oxy)-N-benzyl-2,2-dimethylbutanamide] |  |  | weak |
|  | + | + | + | CCC(C)(C)C(=O)N(Cc1ccccc1)OC(=O)Oc1ccccc1 [Compound 58, N-benzyl-2,2-dimethyl-N-((phenoxycarbonyl)oxy)butanamide] |  | 0.0451 |  |
|  | + | + | + | CCC(C)(C)C(=O)N(Cc1ccccc1)OC(=O)c1cccnc1 [Compound 60, N-benzyl-2,2-dimethyl-N-(nicotinoyloxy)butanamide] |  | 0.0835 |  |
|  | + | + | + | [2H]CC([2H])C(C)(C)C(=O)N(Cc1cc(F)cc(F)c1)OC(=O)OCC (stereo not drawn) [Compound 61, N-(3,5-difluorobenzyl)-N-((ethoxycarbonyl)oxy)-2,2-dimethylbutanamide-3,4-d2] |  | 0.128 |  |
|  | + | + | + | [2H]CC([2H])C(C)(C)C(=O)N(Cc1cc(F)cc(F)c1)OC(=O)c1cccnc1 (stereo not drawn) [Compound 62, N-(3,5-difluorobenzyl)-2,2-dimethyl-N-(nicotinoyloxy)butanamide-3,4-d2] |  | 0.0453 |  |
|  | + | + | + | CCC(C)(C)C(=O)N(Cc1ccccc1)OCOC(=O)C(C)(C)C [Compound 63, ((N-benzyl-2,2-dimethylbutanamido)oxy)methyl pivalate] |  | 0.0629 |  |
|  | + | + | + | [2H]CC([2H])C(C)(C)C(=O)N(Cc1cc(F)cc(F)c1)OCOC(=O)C(C)(C)C (stereo not drawn) [Compound 64, ((N-(3,5-difluorobenzyl)-2,2-dimethylbutanamido-3,4-d2)oxy)methyl pivalate] |  | 0.0914 |  |
|  | + | + | + | [2H]CC([2H])C(C)(C)C(=O)N(Cc1cc(F)cc(F)c1)OC(=O)OCCOC (stereo not drawn) [Compound 65, N-(3,5-difluorobenzyl)-N-(((2-methoxyethoxy)carbonyl)oxy)-2,2-dimethylbutanamide-3,4-d2] |  | 0.0372 |  |
|  | + | + | + | [2H]CC([2H])C(C)(C)C(=O)N(Cc1cc(F)cc(F)c1)OC(=O)OCCOCCOC (stereo not drawn) [Compound 66, N-(3,5-difluorobenzyl)-N-(((2-(2-methoxyethoxy)ethoxy)carbonyl)oxy)-2,2-dimethylbutanamide-3,4-d2] |  | 0.046 |  |
|  | + | + | + | [2H]CC([2H])C(C)(C)C(=O)N(Cc1cc(F)cc(F)c1)OC(=O)OCCOCCOCCOC (stereo not drawn) [Compound 67, N-((2,5,8,11-tetraoxadodecanoyl)oxy)-N-(3,5-difluorobenzyl)-2,2-dimethylbutanamide-3,4-d2] |  | 0.0585 |  |
| 1 to 10 |  |  |  | O=C(C1CCN(c2ncc(F)cn2)CC1)N(O)Cc1ccc(F)cc1 [Compound 85, N-(4-fluorobenzyl)-1-(5-fluoropyrimidin-2-yl)-N-hydroxypiperidine-4-carboxamide] | 1 to 10 |  |  |

| SMILES | EC50 (ferroptosis) [µM] | L [1] | H [2] | PK [3] | EC50 (necrosis; [4]) [µM] | EC50 (necrosis; Active Pro-drugs) [µM] | EC50(nM) (necrosis; Active Pro-drugs) |
| --- | --- | --- | --- | --- | --- | --- | --- |
| CCC(C)(C)C(=O)N(Cc1ccccc1)OC(=O)OCC(C)C [Compound 59, N-benzyl-N-((isobutoxycarbonyl)oxy)-2,2-dimethylbutanamide] |  | + | + | + |  | 0.0448 |  |
